Laboratory results reported in patent US20120046354A1, “ANTI-OXIDANT LOZENGES FOR THE PREVENTION AND TREATMENT OF RADIATION INDUCED MUCOSITIS, PRECANCEROUS LESIONS, ORAL CANCER AND OTHER ORAL CAVITY MUCOSAL DISORDERS” (priority 2010, published 2012).

Columns and labels:
[1] = tested on: wound healing; conditions: following burn injury and surgeries, laboratory animals; cited from earlier work
[2] = tested on: leukoplakia; set-up: clinical response rate / response rate among patients with biopsy-proved dysplasia: dose or concentration left out as unconfirmed; conditions: cited from earlier work
[3] = tested on: oral leukoplakia; conditions: topically applied; cited from earlier work
[4] = tested on: radiation-induced anal ulceration; assay: case of a patient with AIDS and anal carcinoma with radiation-induced anal ulceration, orally administered vitamin A; format: in vivo, human; conditions: single patient
Excerpt: (§1) The inventor has described a dramatic case of the patient with AIDS and anal carcinoma who developed a large radiation-induced anal ulceration with marked debility. The patient required high dose opioid therapy for control of anal pain. […] The inventor has also designed, conducted and published a randomized double-blinded trial comparing vitamin A in the form of retinyl palmitate (10,000 IU by mouth for 90 days) to placebo in patients with radiation proctopathy.

[5] = tested on: radiation proctopathy; assay: randomized double-blinded trial versus placebo in patients with radiation proctopathy; format: in vivo, human; conditions: 10,000 IU by mouth for 90 days
Excerpt: as §1

[6] = tested on: severe mucositis; conditions: 250 mg daily for 21 days then 75 mg daily; control group 38 patient-weeks, P=0.025; cited from earlier work
[7] = tested on: mucositis after chemotherapy; conditions: 1 mL topical oil (400 mg) twice daily, 18 patients; cited from earlier work
[8] = tested on: mucositis; conditions: mouthwash; cited from earlier work
[9] = three months of therapy, placebo 10 percent

Vitamin A
wound healing [1]: accelerate wound healing

CC1=C(/C=C/C(C)=C/C=C/C(C)=C\C(=O)O)C(C)(C)CCC1 [isotretinoin, 13-cis-retinoic acid]
patients who required decreases in their dosage ([2]; higher dose, 2 mg/kg per day): 47%
patients who developed conjunctivitis ([2]; lower dose, 1 mg/kg per day): 29%
xeroderma ([2]; lower dose, 1 mg/kg per day): common
clinical response rate [2, 9]: 67%
response rate among patients with biopsy-proved dysplasia [2, 9]: 54%
patients with relapse of disease ([2]; within three months of discontinuation of treatment): about half

O=C(c1ccccc1)c1ccc2n1CCC2C(=O)O (centres unmarked) [ketolorac]
treatment of oral leukoplakia [3]: did not appear to effectively treat

CCCCCCCCCCCCCCCC(=O)OC/C=C(C)/C=C/C=C(C)/C=C/C1=C(C)CCCC1(C)C [retinyl palmitate]
persistence of wound healing and symptomatic relief ([4]; after twelve week oral course): more than six
wound healing and symptomatic relief ([4]; twelve week course, orally administered): complete wound healing and symptomatic relief
rectal symptoms of radiation proctopathy [5]: significantly reduced

CC1=C(/C=C/C(C)=C/C=C/C(C)=C/C=C/C=C(C)/C=C/C=C(C)/C=C/C2=C(C)CCCC2(C)C)C(C)(C)CCC1 [beta-carotene]
severe mucositis [6]: 22 patient-weeks

vitamin E
benefit on mucosal lesions compared to soybean oil [7]: benefit

[H]/N=C(\N/C(=N/[H])NCCCCCCNC(=N)NC(=N)Nc1ccc(Cl)cc1)Nc1ccc(Cl)cc1 [chlorhexidine]
effectiveness for mucositis [8]: limited or possibly no effectiveness
